# Measured values from article PMC11940505, “Antivirulence Properties of Kuraridin Against Methicillin-Resistant Staphylococcus aureus (MRSA)” (Biomedicines, 2025).
# Molecular target: T1, Sortase A (SrtA) (Staphylococcus aureus, UniProt Q2FV99)
# T1 construct: recombinant SrtA enzyme (BPS Bioscience)
# Test: fluorescence cleavage assay of Abz-LPETG-K(Dnp)-NH2 with recombinant SrtA
# Assay type: biochemical
# T1 sequence (Q2FV99 whole entry): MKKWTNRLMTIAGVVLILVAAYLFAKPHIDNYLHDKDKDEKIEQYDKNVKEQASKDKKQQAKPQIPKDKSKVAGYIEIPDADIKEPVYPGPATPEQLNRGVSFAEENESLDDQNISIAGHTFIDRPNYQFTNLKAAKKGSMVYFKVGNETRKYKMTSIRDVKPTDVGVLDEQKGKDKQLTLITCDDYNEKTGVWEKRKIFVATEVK
smiles,measurement,value
"C=C(C)[C@H](CC=C(C)C)Cc1c(O)cc(OC)c(C(=O)/C=C/c2ccc(O)cc2O)c1O [Kuraridin, (E)-1-[2,4-dihydroxy-6-methoxy-3-(5-methyl-2-prop-1-en-2-ylhex-4-enyl)phenyl]-3-(2,4-dihydroxyphenyl)prop-2-en-1-one]",fluorescence cleavage assay of Abz-LPETG-K(Dnp)-NH2 with recombinant SrtA,LogIC50 1.699 ± 0.055
